The text below walks through data of patent US20250230193A1, “CYCLIC COMPOUND HAVING SELECTIVE KRAS INHIBITORY EFFECT ON HRAS AND NRAS” (CHUGAI SEIYAKU KABUSHIKI KAISHA, priority 2022, published 2025).

Where a SMILES comes first, the peptide text is derived from it. Bridges are numbered along the chain shown (N, C = ends). [ ]: non-standard residue; d: D form. The star is where a group is joined. hPhe(3-Cl-4-CF3) = N[C@@H](CCc1ccc(C(F)(F)F)c(Cl)c1)C(=O)O; NPrPhe(4-CF3) = CCCN[C@@H](Cc1ccc(C(F)(F)F)cc1)C(=O)O; Piperazinyl(4-(3-oxetanyl)) = C1OCC1N1CCN(*)CC1; 3Oxa8azabicyclo(3.2.1)octane = C1CC2COCC1N2*; NMeGly(cPent) = CN[C@H](C(=O)O)C1CCCC1; Piperidide(4-Me) = CC1CCN(*)CC1; NMeD = CN[C@@H](CC(=O)O)C(=O)O; NMeL = CN[C@@H](CC(C)C)C(=O)O; Oxazolidin(3-yl) = C1CN(*)CO1; Azetidin(1-yl) = C1CN(*)C1; NMeA = CN[C@@H](C)C(=O)O; Piperidide = C1CCN(*)CC1; Pyrrolidide = C1CCN(*)C1; Ac5c = NC1(C(=O)O)CCCC1; Aze = O=C(O)[C@@H]1CCN1; X25 = CC1(C)CCN(*)C1; Sar = CNCC(=O)O

Assay [1] deals with GDP-bound NRAS wild-type protein (Homo sapiens, UniProt P01111). Put plainly: Binding to NRAS by surface plasmon resonance (SPR), Single Cycle Kinetics. The conditions noted are these: KD ratio NRAS/KRAS, SPR. Background: Surface plasmon resonance follows binding to a sensor surface in real time, without labels.
The target of assay [2] is GDP-bound HRAS wild-type protein (Homo sapiens, UniProt P01112). As to the kind of experiment: Binding to HRAS by surface plasmon resonance (SPR), Single Cycle Kinetics. The conditions noted are these: KD ratio HRAS/KRAS, SPR.
GDP-bound HRAS wild-type protein, sequence (P01112 whole entry): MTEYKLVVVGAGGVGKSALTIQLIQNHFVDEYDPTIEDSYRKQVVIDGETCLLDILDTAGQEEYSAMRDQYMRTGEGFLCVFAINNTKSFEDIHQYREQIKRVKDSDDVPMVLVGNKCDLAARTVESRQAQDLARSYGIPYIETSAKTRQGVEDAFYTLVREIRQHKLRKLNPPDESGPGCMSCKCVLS

GDP-bound NRAS wild-type protein, sequence (P01111 whole entry): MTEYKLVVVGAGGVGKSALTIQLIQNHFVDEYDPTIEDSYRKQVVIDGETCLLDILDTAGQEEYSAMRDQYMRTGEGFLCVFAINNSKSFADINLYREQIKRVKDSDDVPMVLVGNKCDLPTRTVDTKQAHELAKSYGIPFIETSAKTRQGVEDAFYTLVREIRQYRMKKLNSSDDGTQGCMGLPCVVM

In the case of `CCCN1C(=O)CN(C)C(=O)CN(C)C(=O)[C@H]([C@@H](C)CC)NC(=O)[C@H](CC(C)C)N(C)C(=O)C[C@@H](C(=O)N2C3CCC2COC3)N(C)C(=O)[C@H](C2CCCC2)N(C)C(=O)C2(CCCC2)NC(=O)[C@@H]2CCCN2C(=O)[C@H](CCc2ccc(C(F)(F)F)c(Cl)c2)NC(=O)CN(C)C(=O)[C@@H]1Cc1ccc(C(F)(F)F)cc1` [PP0173] ([NMeL]I[Sar][Sar][NPrPhe(4-CF3)][Sar][hPhe(3-Cl-4-CF3)]P[Ac5c][NMeGly(cPent)][NMeD]-{3Oxa8azabicyclo(3.2.1)octane}; lactam N-11), the “NRAS/KRAS (ratio of KD for GDP-bound NRAS wild-type to KD for KRAS)” value in assay [1] was “B (a compound having 3 or more and less than 10 is denoted as B)”. In assay [2], the “HRAS/KRAS (ratio of KD for GDP-bound HRAS wild-type to KD for KRAS)” value is “C (A compound having a KD ratio of 0.1 or more and less than 3 is denoted as C)”.

Take `CCCN1C(=O)CN(C)C(=O)CN(C)C(=O)[C@H]([C@@H](C)CC)NC(=O)[C@H](CC(C)C)N(C)C(=O)C[C@@H](C(=O)N2CCOC2)N(C)C(=O)[C@H](C2CCCC2)N(C)C(=O)C2(CCCC2)NC(=O)[C@@H]2CCCN2C(=O)[C@H](CCc2ccc(C(F)(F)F)c(Cl)c2)NC(=O)CN(C)C(=O)[C@@H]1Cc1ccc(C(F)(F)F)cc1` [PP0174] ([NMeL]I[Sar][Sar][NPrPhe(4-CF3)][Sar][hPhe(3-Cl-4-CF3)]P[Ac5c][NMeGly(cPent)][NMeD]-{Oxazolidin(3-yl)}; lactam N-11): in assay [1], the “NRAS/KRAS (ratio of KD for GDP-bound NRAS wild-type to KD for KRAS)” value is “B (a compound having 3 or more and less than 10 is denoted as B)”. For the same compound, the “HRAS/KRAS (ratio of KD for GDP-bound HRAS wild-type to KD for KRAS)” value in assay [2] was “B (a compound having 3 or more and less than 10 is denoted as B)”.

Take `CCCN1C(=O)CN(C)C(=O)CN(C)C(=O)[C@H]([C@@H](C)CC)NC(=O)[C@H](CC(C)C)N(C)C(=O)C[C@@H](C(=O)N2CCN(C3COC3)CC2)N(C)C(=O)[C@H](C2CCCC2)N(C)C(=O)C2(CCCC2)NC(=O)[C@@H]2CCCN2C(=O)[C@H](CCc2ccc(C(F)(F)F)c(Cl)c2)NC(=O)CN(C)C(=O)[C@@H]1Cc1ccc(C(F)(F)F)cc1` [PP0175] ([NMeL]I[Sar][Sar][NPrPhe(4-CF3)][Sar][hPhe(3-Cl-4-CF3)]P[Ac5c][NMeGly(cPent)][NMeD]-{Piperazinyl(4-(3-oxetanyl))}; lactam N-11): in assay [1], the “NRAS/KRAS (ratio of KD for GDP-bound NRAS wild-type to KD for KRAS)” value is “B (a compound having 3 or more and less than 10 is denoted as B)”. Also, the “HRAS/KRAS (ratio of KD for GDP-bound HRAS wild-type to KD for KRAS)” value in assay [2] is “B (a compound having 3 or more and less than 10 is denoted as B)”.

As for `CCCN1C(=O)CN(C)C(=O)CN(C)C(=O)[C@H]([C@@H](C)CC)NC(=O)[C@H](CC(C)C)N(C)C(=O)C[C@@H](C(=O)N2CCC(C)CC2)N(C)C(=O)[C@H](C2CCCC2)N(C)C(=O)C2(CCCC2)NC(=O)[C@@H]2CCCN2C(=O)[C@H](CCc2ccc(C(F)(F)F)c(Cl)c2)NC(=O)CN(C)C(=O)[C@@H]1Cc1ccc(C(F)(F)F)cc1` [PP0176] ([NMeL]I[Sar][Sar][NPrPhe(4-CF3)][Sar][hPhe(3-Cl-4-CF3)]P[Ac5c][NMeGly(cPent)][NMeD]-{Piperidide(4-Me)}; lactam N-11), the “NRAS/KRAS (ratio of KD for GDP-bound NRAS wild-type to KD for KRAS)” value in assay [1] was “B (a compound having 3 or more and less than 10 is denoted as B)”. Besides, the “HRAS/KRAS (ratio of KD for GDP-bound HRAS wild-type to KD for KRAS)” value in assay [2] was “C (A compound having a KD ratio of 0.1 or more and less than 3 is denoted as C)”.

`CCCN1C(=O)CN(C)C(=O)CN(C)C(=O)[C@H]([C@@H](C)CC)NC(=O)[C@H](CC(C)C)N(C)C(=O)C[C@@H](C(=O)N2CCC(C)(C)C2)N(C)C(=O)[C@H](C2CCCC2)N(C)C(=O)C2(CCCC2)NC(=O)[C@@H]2CCCN2C(=O)[C@H](CCc2ccc(C(F)(F)F)c(Cl)c2)NC(=O)CN(C)C(=O)[C@@H]1Cc1ccc(C(F)(F)F)cc1` [PP0177] ([NMeL]I[Sar][Sar][NPrPhe(4-CF3)][Sar][hPhe(3-Cl-4-CF3)]P[Ac5c][NMeGly(cPent)][NMeD]-X25; lactam N-11): the “NRAS/KRAS (ratio of KD for GDP-bound NRAS wild-type to KD for KRAS)” value in assay [1] is “B (a compound having 3 or more and less than 10 is denoted as B)”. Further, the “HRAS/KRAS (ratio of KD for GDP-bound HRAS wild-type to KD for KRAS)” value in assay [2] was “C (A compound having a KD ratio of 0.1 or more and less than 3 is denoted as C)”.

On to `CCCN1C(=O)[C@@H]2CCN2C(=O)[C@H](C)N(C)C(=O)[C@H]([C@@H](C)CC)NC(=O)[C@H](CC(C)C)N(C)C(=O)C[C@@H](C(=O)N(C)C)N(C)C(=O)[C@H](C2CCCC2)N(C)C(=O)C2(CCCC2)NC(=O)[C@@H]2CCCN2C(=O)[C@H](CCc2ccc(C(F)(F)F)c(Cl)c2)NC(=O)CN(C)C(=O)[C@@H]1Cc1ccc(C(F)(F)F)cc1` [PP0178] ([NMeL]I[NMeA][Aze][NPrPhe(4-CF3)][Sar][hPhe(3-Cl-4-CF3)]P[Ac5c][NMeGly(cPent)][NMeD]-NMe2; lactam N-11), for which the “NRAS/KRAS (ratio of KD for GDP-bound NRAS wild-type to KD for KRAS)” value in assay [1] was “C (A compound having a KD ratio of 0.1 or more and less than 3 is denoted as C)”. In addition, the “HRAS/KRAS (ratio of KD for GDP-bound HRAS wild-type to KD for KRAS)” value in assay [2] was “B (a compound having 3 or more and less than 10 is denoted as B)”.

Regarding `CCCN1C(=O)[C@@H]2CCN2C(=O)[C@H](C)N(C)C(=O)[C@H]([C@@H](C)CC)NC(=O)[C@H](CC(C)C)N(C)C(=O)C[C@@H](C(=O)N2CCCC2)N(C)C(=O)[C@H](C2CCCC2)N(C)C(=O)C2(CCCC2)NC(=O)[C@@H]2CCCN2C(=O)[C@H](CCc2ccc(C(F)(F)F)c(Cl)c2)NC(=O)CN(C)C(=O)[C@@H]1Cc1ccc(C(F)(F)F)cc1` [PP0179] ([NMeL]I[NMeA][Aze][NPrPhe(4-CF3)][Sar][hPhe(3-Cl-4-CF3)]P[Ac5c][NMeGly(cPent)][NMeD]-Pyrrolidide; lactam N-11), the “NRAS/KRAS (ratio of KD for GDP-bound NRAS wild-type to KD for KRAS)” value in assay [1] is “C (A compound having a KD ratio of 0.1 or more and less than 3 is denoted as C)”. Moreover, the “HRAS/KRAS (ratio of KD for GDP-bound HRAS wild-type to KD for KRAS)” value in assay [2] was “B (a compound having 3 or more and less than 10 is denoted as B)”.

For `CCCN1C(=O)[C@@H]2CCN2C(=O)[C@H](C)N(C)C(=O)[C@H]([C@@H](C)CC)NC(=O)[C@H](CC(C)C)N(C)C(=O)C[C@@H](C(=O)N2CCCCC2)N(C)C(=O)[C@H](C2CCCC2)N(C)C(=O)C2(CCCC2)NC(=O)[C@@H]2CCCN2C(=O)[C@H](CCc2ccc(C(F)(F)F)c(Cl)c2)NC(=O)CN(C)C(=O)[C@@H]1Cc1ccc(C(F)(F)F)cc1` [PP0180] ([NMeL]I[NMeA][Aze][NPrPhe(4-CF3)][Sar][hPhe(3-Cl-4-CF3)]P[Ac5c][NMeGly(cPent)][NMeD]-Piperidide; lactam N-11), the “NRAS/KRAS (ratio of KD for GDP-bound NRAS wild-type to KD for KRAS)” value in assay [1] was “C (A compound having a KD ratio of 0.1 or more and less than 3 is denoted as C)”. In assay [2], the “HRAS/KRAS (ratio of KD for GDP-bound HRAS wild-type to KD for KRAS)” value is “C (A compound having a KD ratio of 0.1 or more and less than 3 is denoted as C)”.

As to `CCCN1C(=O)[C@@H]2CCN2C(=O)[C@H](C)N(C)C(=O)[C@H]([C@@H](C)CC)NC(=O)[C@H](CC(C)C)N(C)C(=O)C[C@@H](C(=O)N2CCC2)N(C)C(=O)[C@H](C2CCCC2)N(C)C(=O)C2(CCCC2)NC(=O)[C@@H]2CCCN2C(=O)[C@H](CCc2ccc(C(F)(F)F)c(Cl)c2)NC(=O)CN(C)C(=O)[C@@H]1Cc1ccc(C(F)(F)F)cc1` [PP0181] ([NMeL]I[NMeA][Aze][NPrPhe(4-CF3)][Sar][hPhe(3-Cl-4-CF3)]P[Ac5c][NMeGly(cPent)][NMeD]-{Azetidin(1-yl)}; lactam N-11), in assay [1], the “NRAS/KRAS (ratio of KD for GDP-bound NRAS wild-type to KD for KRAS)” value is “C (A compound having a KD ratio of 0.1 or more and less than 3 is denoted as C)”. Moreover, in assay [2], the “HRAS/KRAS (ratio of KD for GDP-bound HRAS wild-type to KD for KRAS)” value is “B (a compound having 3 or more and less than 10 is denoted as B)”.
